Records with an inconclusive call do not appear. Calls of active or inactive are those of the source.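 Rule for the calls: active = cytotoxic compounds whose falling curve has a midpoint dose at most twice the top valid dose; inconclusive = flat fit losing 30 to 70% signal, or poor fit; inactive = the rest.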
Tested on: not listed separately
Assay: HepG2 cell cytotoxicity, dose response, cytotoxicity control, CellTiter-Glo luminescence, 72 h, dry powder (AID 1053192)
Details: HepG2 viability, CellTiter-Glo ATP luminescence, 72 h; at 50 µM (top of the series)
With `Cc1cc(C)c(S(=O)(=O)NCCn2c(C)cc3ccccc32)c(C)c1` the activity change, negative = cytotoxicity was 18.2% (inactive).
For `Cc1ccc(S(=O)(=O)NCc2ccc3c(c2)cc(C)n3C)cc1`, the activity change, negative = cytotoxicity was -22.2% (inactive).
In the case of `O=C(c1c(F)cccc1F)N(Cc1ccccc1)Cc1ccccc1`, the activity change, negative = cytotoxicity is reported as -4.81% (inactive).
In the case of `O=C(O)C1CCN(c2nc(-c3ccccc3)c3cc(Br)ccc3n2)CC1`, the activity change, negative = cytotoxicity is reported as 1.7% (inactive).
With `CNc1ccccc1C(C)(C)c1cc(-c2cccc(OC)c2)no1` the activity change, negative = cytotoxicity was -1.6% (inactive).
With `Cc1cccc(NC(=O)NCc2ccc3c(c2)cc(C)n3C)c1` the activity change, negative = cytotoxicity was -2.27% (inactive).
For `Cc1cc2ccccc2n1CCNC(=O)COc1ccc2ccccc2c1`, the activity change, negative = cytotoxicity was 21.7% (inactive).
For `Cc1cc2cc(CNC(=O)Nc3ccc(Cl)c(Cl)c3)ccc2n1C`, the activity change, negative = cytotoxicity was -3.46% (inactive).
In the case of `COc1ccc(Nc2ccccc2N)cc1`, the activity change, negative = cytotoxicity is reported as 4.91% (inactive).
With `Cc1ccc(CSc2nc3[nH]ncc3c(=O)[nH]2)cc1` the activity change, negative = cytotoxicity was -34.4% (inactive).
With `CCc1cccc2c1NC1(CCCC1)CC2C` (configuration not stated) the activity change, negative = cytotoxicity was -13.5% (inactive).

Tested on: HepG2 viability, CellTiter-Glo ATP luminescence, 72 h
Assay: as above
Details: not given
`OCc1ccc(-c2nn(Cc3ccccc3)c3ccccc23)o1` showed an AC50 of 8.07 µM.

Source: PubChem BioAssay AID1053192 (Broad Institute, 2014)
